Patent US20260193170A1 (University of Copenhagen, priority 2022, published 2026)

Molecular target: T1, human Keap1 Kelch (Homo sapiens, UniProt Q14145)
T1 construct: human Keap1 Kelch domain (residue 321-609, UniProt Q14145); made in house; host or cells: Escherichia coli BL21 (DE3) pLysS, pRSET A vector
Assay: Surface plasmon resonance (SPR), immobilized Keap1 Kelch domain
Format: binding
Conditions: 25 °C, Rmax constrained to 15 RU (theoretical max)
Description: 768 fragments from the commercial available (Enamine) DSI-poised library were screened against the human Keap1 Kelch domain using X-ray crystallography. After data collection and processing (example 3), several crystal structures with high-resolution (1.0-2.1 Å) were identified showing fragments bound to the Keap1 binding pocket. […] To confirm XCF #0252 as a hit and determine its affinity to human Keap1 Kelch, this fragment was resynthesized (Scheme 1) and tested by surface plasmon resonance (SPR). In SPR, a dose-dependent activity was observed and an affinity of Kd=0.6 mM was measured (FIG. 2B).
SPR measurements were performed at 25° C. using a Pioneer FE FE instrument (Sartorius). The Keap1 Kelch domain was covalently immobilized on the biosensor chip surface by amine coupling to a level of 2150 RU, using a 10 mM NaOAc pH 5 immobilization buffer. The 1×HBSTET buffer supplemented with 4% DMSO was used as running buffer for the experiments. Microcalibration was performed for all SPR experiments to adjust for DMSO bulk effects (low limit of 3% and a high limit of 4%). The compound was injected in a concentration series of twofold serial dilutions ([…]-1000 μM) using standard injections at a 30 μL/min flow rate. The data were analyzed using Qdat Data Analysis Tool version 2.6.3.0 (Sartorius). […]

T1 sequence (Q14145 321-609): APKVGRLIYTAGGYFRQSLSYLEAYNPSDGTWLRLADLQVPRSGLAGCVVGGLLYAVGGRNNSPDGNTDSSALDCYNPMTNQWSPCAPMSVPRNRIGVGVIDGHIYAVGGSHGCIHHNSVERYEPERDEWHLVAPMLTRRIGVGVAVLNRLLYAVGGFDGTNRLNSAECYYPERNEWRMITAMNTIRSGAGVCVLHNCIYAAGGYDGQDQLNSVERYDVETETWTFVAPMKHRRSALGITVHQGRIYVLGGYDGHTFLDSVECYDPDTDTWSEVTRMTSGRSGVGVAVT

Q: With O=C(COc1ccccc1)NC1CCCCC1 [XCF #0252, N-Cyclohexyl-2-phenoxyacetamide] as the compound, how does the Kd read?
A: The Kd was 600 µM.
